pIC50: −log10 of the molar value. Where “and” joins values, the source holds several entries; their conditions need not be identical. Identical values can stand only once.

A word on the pIC50: it is the IC50 on a negative log10 scale, so that one unit is a factor of ten. Low values mean a large IC50, high ones a small IC50.

Coagulation factor X, sequence (P00742 41-179 limits assumed): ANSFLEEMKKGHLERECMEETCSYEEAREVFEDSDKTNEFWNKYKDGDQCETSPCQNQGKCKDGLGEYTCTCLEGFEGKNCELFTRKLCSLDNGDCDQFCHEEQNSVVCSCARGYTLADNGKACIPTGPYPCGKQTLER
Coagulation factor X, sequence (P00742 235-488 limits assumed): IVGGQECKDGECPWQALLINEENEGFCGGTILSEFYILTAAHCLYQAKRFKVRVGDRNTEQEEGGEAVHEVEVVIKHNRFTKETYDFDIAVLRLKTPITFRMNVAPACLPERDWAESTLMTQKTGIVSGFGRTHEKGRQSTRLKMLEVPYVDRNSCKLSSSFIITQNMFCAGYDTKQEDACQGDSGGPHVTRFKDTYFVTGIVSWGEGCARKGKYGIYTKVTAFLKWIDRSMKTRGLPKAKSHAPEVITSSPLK

The experiment has as its target Coagulation factor X (Homo sapiens, UniProt P00742). The experiment is described as follows: D3R245.
`COC(=O)CN([C@H]1CCN([C@@H](C)C(=O)N2CCOCC2)C1=O)S(=O)(=O)/C=C/c1ccc(Cl)cc1` [GTC000013A] gave a pIC50 of 7.22. The result for `C[C@@H](C(=O)N1CCOCC1)N1CC[C@H](N(Cc2cccnc2)S(=O)(=O)c2ccc3cc(Cl)ccc3c2)C1=O` [GTC000015A] reads 7.58.

On to `CCN([C@H]1CCN([C@@H](C)C(=O)N2CCOCC2)C1=O)S(=O)(=O)c1ccc2cc(Cl)ccc2c1` [GTC000023A], for which the pIC50 is 7.27. Take `Cc1nc(CN([C@H]2CCN([C@@H](C)C(=O)N3CCOCC3)C2=O)S(=O)(=O)c2ccc3cc(Cl)ccc3c2)cs1` [GTC000024A]: the pIC50 was 7.76. The result for `C[C@@H](C(=O)N1CCOCC1)N1CC[C@H](N(CC#N)S(=O)(=O)/C=C/c2ccc(Cl)cc2)C1=O` [GTC000011A] reads 7.06. The result for `C[C@@H](C(=O)N1CCOCC1)N1CC[C@H](N(CC(N)=O)S(=O)(=O)/C=C/c2ccc(Cl)cc2)C1=O` [GTC000030A] reads 7.27; that for `C[C@@H](C(=O)N1CCOCC1)N1CC[C@H](N(Cc2ccoc2)S(=O)(=O)c2ccc3cc(Cl)ccc3c2)C1=O` [GTC000014A], 7.40. For `C[C@@H]1CN(C(=O)[C@H](C)N2CC[C@H](N(CC(N)=O)S(=O)(=O)c3ccc4cc(Cl)ccc4c3)C2=O)C[C@H](C)O1` [GTC000038A], the pIC50 is 7.58. To `C[C@@H](C(=O)N1CCOCC1)N1CC[C@H](N(CC#N)S(=O)(=O)c2ccc(-c3ccc(Cl)s3)s2)C1=O` [GTC000008A] belongs 7.55. The result for `C[C@@H](C(=O)N1CCOCC1)N1CC[C@H](N(C)S(=O)(=O)/C=C/c2ccc(Cl)s2)C1=O` [GTC000044A] reads 6.39. Take `CCC(=O)CN([C@H]1CCN([C@@H](C)C(=O)N2CCOCC2)C1=O)S(=O)(=O)/C=C/c1ccc(Cl)cc1` [GTC000012A]: the pIC50 was 7.22. This pIC50 is 0.83 log units higher than that of the compound before.

In turn, `COC(=O)CN([C@H]1CCN([C@@H](C)C(=O)N2CCOCC2)C1=O)S(=O)(=O)c1ccc2cc(Cl)ccc2c1` [GTC000001A] showed a pIC50 of 7.98. This pIC50 lies 0.76 log units higher than the previous one. To `C[C@@H](C(=O)N1CCOCC1)N1CC[C@H](N(c2cccnc2)S(=O)(=O)c2ccc3cc(Cl)ccc3c2)C1=O` [GTC000037A] belongs 7.11; to `C[C@@H](C(=O)N1CCOCC1)N1CC[C@H](N(CC(N)=O)S(=O)(=O)c2ccc(-c3ccc(Cl)s3)s2)C1=O` [GTC000032A], 7.85; to `C[C@@H](C(=O)N1CCOCC1)N1CC[C@H](N(c2ccccc2)S(=O)(=O)c2ccc3cc(Cl)ccc3c2)C1=O` [GTC000033A], 6.58. `C[C@@H](C(=O)N1CCOCC1)N1CC[C@H](N(CCN(C)C)S(=O)(=O)c2ccc3cc(Cl)ccc3c2)C1=O` [GTC000042A] gave a pIC50 of 7.62. This pIC50 lies 1.04 log units higher than the previous one. To `CC(=O)NCCN([C@H]1CCN([C@@H](C)C(=O)N2CCOCC2)C1=O)S(=O)(=O)c1ccc2cc(Cl)ccc2c1` [GTC000041A] belongs 7.25; to `C[C@@H](C(=O)N1CCOCC1)N1CC[C@H](N(Cc2ccncc2)S(=O)(=O)c2ccc3cc(Cl)ccc3c2)C1=O` [GTC000029A], 7.96; to `C[C@@H](C(=O)N1CCOCC1)N1CC[C@H](N(c2ccsc2)S(=O)(=O)c2ccc3cc(Cl)ccc3c2)C1=O` [GTC000036A], 6.82. The result for `C[C@@H](C(=O)N1CCOCC1)N1CC[C@H](N(CC(N)=O)S(=O)(=O)c2cc3ccc(Cl)cc3s2)C1=O` [GTC000026A] reads 7.30; that for `C[C@@H](C(=O)N1CCOCC1)N1CC[C@H](N(CCN2CCOCC2)S(=O)(=O)c2ccc3cc(Cl)ccc3c2)C1=O` [GTC000040A], 8.08. To `C[C@@H](C(=O)N1CCOCC1)N1CC[C@H](N(CC(=O)O)S(=O)(=O)c2ccc(-c3ccc(Cl)s3)s2)C1=O` [GTC000016A] belongs 7.62.

Compound `CCOC(=O)CN([C@H]1CCN([C@@H](C)C(=O)N2CCOCC2)C1=O)S(=O)(=O)c1ccc2cc(Cl)ccc2c1` [GTC000018A] had a negative logarithm of the IC50 (pIC50) of 6.45. The result for `C[C@@H](C(=O)N1CCOCC1)N1CC[C@H](N(CC(=O)C(C)(C)C)S(=O)(=O)c2ccc3cc(Cl)ccc3c2)C1=O` [GTC000021A] reads 7.77. To `CCC(=O)CN([C@H]1CCN([C@@H](C)C(=O)N2CCOCC2)C1=O)S(=O)(=O)c1ccc(-c2ccc(Cl)s2)s1` [GTC000010A] belongs 7.77; to `COC(=O)CN([C@H]1CCN([C@@H](C)C(=O)N2CCOCC2)C1=O)S(=O)(=O)c1ccc(-c2ccc(Cl)s2)s1` [GTC000009A], 7.81; to `C=CCN([C@H]1CCN([C@@H](C)C(=O)N2CCOCC2)C1=O)S(=O)(=O)c1ccc2cc(Cl)ccc2c1` [GTC000004A], 7.17. Take `C[C@@H](C(=O)N1CCOCC1)N1CC[C@H](N(c2ccc(F)cc2)S(=O)(=O)c2ccc3cc(Cl)ccc3c2)C1=O` [GTC000034A]: the pIC50 was 6.77. Compared with the last compound, the pIC50 is 0.40 log units lower. To `CCC(=O)CN([C@H]1CCN([C@@H](C)C(=O)N2CCOCC2)C1=O)S(=O)(=O)c1cc2ccc(Cl)cc2s1` [GTC000025A] belongs 7.57; to `C[C@@H](C(=O)N1CCOCC1)N1CC[C@H](N(CC(=O)OC(C)(C)C)S(=O)(=O)c2ccc3cc(Cl)ccc3c2)C1=O` [GTC000022A], 8.19.

As to `C[C@@H](C(=O)N1CCOCC1)N1CC[C@H](N(Cc2ccco2)S(=O)(=O)c2ccc3cc(Cl)ccc3c2)C1=O` [GTC000019A], the pIC50 is 7.17. This pIC50 is 1.02 log units lower than that of the compound before. The result for `C[C@@H](C(=O)N1CCOCC1)N1CC[C@H](N(CC(=O)O)S(=O)(=O)/C=C/c2ccc(Cl)cc2)C1=O` [GTC000017A] reads 6.88; that for `C[C@@H](C(=O)N1CCOCC1)N1CC[C@H](N(CC#N)S(=O)(=O)c2ccc3cc(Cl)ccc3c2)C1=O` [GTC000003A], 7.65. With `C[C@@H](C(=O)N1CCOCC1)N1CC[C@H](N(CC(N)=O)S(=O)(=O)c2cc3cc(Cl)ccc3s2)C1=O` [GTC000031A], the pIC50 is 6.66. In the case of `C[C@@H](C(=O)N1CCOCC1)N1CC[C@H](N(CCN2CCCC2)S(=O)(=O)c2ccc3cc(Cl)ccc3c2)C1=O` [GTC000043A], the pIC50 was 7.92. The result for `C[C@@H](C(=O)N1CCOCC1)N1CC[C@H](N(Cc2ccccn2)S(=O)(=O)c2ccc3cc(Cl)ccc3c2)C1=O` [GTC000028A] reads 8.10 and 7.92. With `C[C@@H](C(=O)N1CCOCC1)N1CC[C@H](N(Cc2nccs2)S(=O)(=O)c2ccc3cc(Cl)ccc3c2)C1=O` [GTC000020A], the pIC50 is 7.42. To `CCC(=O)CN([C@H]1CCN([C@@H](C)C(=O)N2CCOCC2)C1=O)S(=O)(=O)c1cc2cc(Cl)ccc2s1` [GTC000027A] belongs 6.56; to `C[C@@H](C(=O)N1C[C@@H]2C[C@H]1CO2)N1CC[C@H](N(CC(N)=O)S(=O)(=O)c2ccc3cc(Cl)ccc3c2)C1=O` [GTC000039A], 7.01.

These data come from BindingDB's records for doi:10.7270/Q2GM865X (D3R/Abbott, 2015).
